In patent publication EP2970215B1, “PYRROLIDINE DERIVATIVES, PHARMACEUTICAL COMPOSITIONS CONTAINING THEM, AND THEIR USE IN THERAPY” (AbbVie Deutschland GmbH & Co. KG, priority 2013, dated 2014) one finds Ki data, which are given here for twelve compounds.

In this test the target is T1, human GlyT1c transporter (Homo sapiens, UniProt P48067).
T1 construct: expressed in transfected cells; host or cells: CHO cells (recombinant; line hGlyT1c_5_CHO is named for the uptake assay)
T1 sequence (P48067 1-706): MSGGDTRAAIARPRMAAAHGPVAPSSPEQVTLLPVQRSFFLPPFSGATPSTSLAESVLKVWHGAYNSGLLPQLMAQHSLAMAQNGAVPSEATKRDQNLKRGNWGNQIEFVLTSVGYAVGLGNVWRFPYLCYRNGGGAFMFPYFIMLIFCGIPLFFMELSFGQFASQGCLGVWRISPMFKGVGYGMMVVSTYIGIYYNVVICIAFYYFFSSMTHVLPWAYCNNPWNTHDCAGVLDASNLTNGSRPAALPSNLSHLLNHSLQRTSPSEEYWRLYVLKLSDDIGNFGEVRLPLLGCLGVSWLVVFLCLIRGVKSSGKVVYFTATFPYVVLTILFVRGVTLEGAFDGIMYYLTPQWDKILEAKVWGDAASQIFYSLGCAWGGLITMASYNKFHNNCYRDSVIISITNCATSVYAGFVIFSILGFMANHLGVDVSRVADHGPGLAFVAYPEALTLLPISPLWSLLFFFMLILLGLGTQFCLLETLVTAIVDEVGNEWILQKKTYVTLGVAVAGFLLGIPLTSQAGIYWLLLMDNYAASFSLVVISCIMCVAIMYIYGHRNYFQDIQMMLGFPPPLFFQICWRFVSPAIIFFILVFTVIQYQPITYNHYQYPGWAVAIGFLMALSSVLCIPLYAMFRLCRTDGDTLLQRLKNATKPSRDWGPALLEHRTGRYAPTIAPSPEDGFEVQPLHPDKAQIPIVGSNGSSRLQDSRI
Description: Radioligand binding assay using recombinant CHO cell membranes expressing human GlyT1. The conditions noted are these: radioligand binding to human GlyT1c transporter-expressing membranes. An excerpt:
2. Radioligand binding assays using recombinant CHO cell membranes expressing human GlyT1: […]
One may read the Ki as a dissociation constant, usually derived from enzyme kinetics or from competition with a known ligand. `Cc1cc(N[C@H]2CN(S(=O)(=O)c3cn(C)cn3)C[C@@H]2c2ccc(F)cc2)ccc1F` [Example 747, (3R,4S)-N-(4-fluoro-3-methylphenyl)-4-(4-fluorophenyl)-1-[(1-methyl-1H-imidazol-4-yl)sulfonyl]pyrrolidin-3-amine]: the Ki is at most 0.01 µM.
`Cc1cccc(NC[C@@H]2CN(S(=O)(=O)c3cn(C)cn3)C[C@H]2c2ccc(F)cc2)c1` (relative stereo) [Example 334, N-({Trans-4-(4-fluorophenyl)-1-[(1-methyl-1H-imidazol-4-yl)sulfonyl]pyrrolidin-3-yl}methyl)-3-methylaniline]: the Ki is at most 1 µM.
With `Cn1cnc(S(=O)(=O)N2C[C@H](Nc3ccc4sccc4c3)[C@@H](c3ccccc3)C2)c1` [Example 654, (3R,4S)-N-(1-benzothiophen-5-yl)-1-[(1-methyl-1H-imidazol-4-yl)sulfonyl]-4-phenylpyrrolidin-3-amine], the Ki is at most 1 µM.
In the case of `Cn1cnc(S(=O)(=O)N2C[C@@H](NC(=O)c3cccc(C(F)(F)F)c3Cl)[C@H](c3ccc(F)cc3)C2)c1` (relative stereo) [Example 3, 2-chloro-N-{trans-4-(4-fluorophenyl)-1-[(1-methyl-1H-imidazol-4-yl)sulfonyl]pyrrolidin-3-yl}-3-(trifluoromethyl)benzamide], the Ki is at most 0.1 µM.
As for `Cn1ccc2cc(S(=O)(=O)N3CC(Nc4ccc(F)c(F)c4)C(c4ccccc4)C3)ccc21` (stereo not drawn) [Example 503, N-(3,4-difluorophenyl)-1-[(1-methyl-1H-indol-5-yl)sulfonyl]-4-phenylpyrrolidin-3-amine], the Ki is at least 10 µM.
The value for `Cn1cnc(S(=O)(=O)N2C[C@H](Nc3cccc(OCC(F)(F)F)c3)[C@@H](c3ccccc3)C2)c1` [Example 670, (3R,4S)-1-[(1-methyl-1H-imidazol-4-yl)sulfonyl]-4-phenyl-N-[3-(2,2,2-trifluoroethoxy)phenyl]pyrrolidin-3-amine] was at most 0.01 µM.
Take `Cn1cnc(S(=O)(=O)N2C[C@@H](COc3cc(C(F)(F)F)ncn3)[C@H](c3ccc(F)cc3)C2)c1` (relative stereo) [Example 336, 4-({Trans-4-(4-fluorophenyl)-1-[(1-methyl-1H-imidazol-4-yl)sulfonyl]pyrrolidin-3-yl}methoxy)-6-(trifluoromethyl)pyrimidine]: the Ki was at most 1 µM.
With `Cc1cccc(N[C@@H]2CN(S(=O)(=O)c3cn(C)cn3)C[C@H]2c2ccc(F)cc2)c1` (relative stereo) [Example 85, trans-4-(4-fluorophenyl)-1-[(1-methyl-1H-imidazol-4-yl)sulfonyl]-N-(3-methylphenyl)pyrrolidin-3-amine] the figure was at most 0.01 µM; with `Cn1cnc(S(=O)(=O)N2C[C@@H](NCc3ccncc3)[C@H](c3ccc(F)cc3)C2)c1` (relative stereo) [Example 270, trans-4-(4-fluorophenyl)-1-[(1-methyl-1H-imidazol-4-yl)sulfonyl]-N-(pyridin-4-ylmethyl)pyrrolidin-3-amine], at most 10 µM; with `Cn1cnc(S(=O)(=O)N2C[C@@H](C(=O)Nc3ccc(F)c(OC(F)(F)F)c3)[C@H](c3ccc(F)cc3)C2)c1` (relative stereo) [Example 370, Trans-4-(4-fluorophenyl)-N-[4-fluoro-3-(trifluoromethoxy)phenyl]-1-[(1-methyl-1H-imidazol-4-yl)sulfonyl]pyrrolidine-3-carboxamide], at most 1 µM.
Regarding `Cn1cnc(S(=O)(=O)N2C[C@@H](Nc3ccc(Cl)c(OC(F)(F)F)c3)[C@H](c3ccc(F)cc3)C2)c1` (relative stereo) [Example 306, trans-N-[4-chloro-3-(trifluoromethoxy)phenyl]-4-(4-fluorophenyl)-1-[(1-methyl-1H-imidazol-4-yl)sulfonyl]pyrrolidin-3-amine], the Ki was at most 0.1 µM.
As for `COC(=O)CCCC(=O)N[C@H]1CN(S(=O)(=O)c2cn(C)cn2)C[C@@H]1c1ccc(F)cc1` [Example 662, methyl 5-({(3R,4S)-4-(4-fluorophenyl)-1-[(1-methyl-1H-imidazol-4-yl)sulfonyl]pyrrolidin-3-yl}amino)-5-oxopentanoate], the Ki was at most 10 µM.
